Assay results: patent US10208019B2, “GLP-1 receptor agonists and uses thereof” (Pfizer Inc., priority 2016, dated 2019)
Structures can show the parent of a compound that is named as a salt. Where two headings read alike, the source gives them in different places.

Tests used:
human GLP-1R [1] = molecular target: human GLP-1R (Homo sapiens (Human), UniProt P43220, L260F); assay: CHO GLP-1R Clone C6—Assay 2: HTRF cAMP cell-based functional agonist assay (low GLP-1R density); conditions: for EC50: CHO GLP-1R Clone C6, cAMP HTRF, geometric mean; for Emax / Assay 2 Emax (%): CHO GLP-1R Clone C6, relative to saturating concentration of full agonist GLP-1 (1 μM), arithmetic mean; for Emax: read-out: Assay 2 Emax (%)
human GLP-1R [2] = molecular target: human GLP-1R (Homo sapiens, UniProt P43220, G168S); assay: CHO GLP-1R Clone H6—Assay 1: HTRF cAMP cell-based functional agonist assay (high GLP-1R density); conditions: for EC50: CHO GLP-1R Clone H6, cAMP HTRF, geometric mean; for Emax: read-out: Assay 1 Emax (%), CHO GLP-1R Clone H6; for Emax / Assay 1 Emax (%): relative to saturating concentration of full agonist GLP-1 (1 μM), arithmetic mean; for Assay 1 Emax (%): CHO GLP-1R Clone H6
human GLP-1R (Homo sapiens, UniProt P43220, G168S), sequence (P43220 24-463 G168S limits assumed): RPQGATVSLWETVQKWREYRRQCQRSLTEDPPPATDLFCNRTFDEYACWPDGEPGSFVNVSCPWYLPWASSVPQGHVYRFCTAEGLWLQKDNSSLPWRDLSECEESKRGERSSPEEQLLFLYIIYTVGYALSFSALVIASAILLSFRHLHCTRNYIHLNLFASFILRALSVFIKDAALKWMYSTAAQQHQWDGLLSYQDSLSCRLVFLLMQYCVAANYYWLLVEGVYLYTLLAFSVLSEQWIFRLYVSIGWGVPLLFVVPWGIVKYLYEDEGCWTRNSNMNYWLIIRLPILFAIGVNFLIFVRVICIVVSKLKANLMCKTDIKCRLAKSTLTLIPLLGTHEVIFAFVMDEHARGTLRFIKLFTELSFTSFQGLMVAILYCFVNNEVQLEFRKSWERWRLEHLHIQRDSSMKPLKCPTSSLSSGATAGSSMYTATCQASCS

human GLP-1R (Homo sapiens (Human), UniProt P43220, L260F), sequence (P43220 24-463 L260F): as the sequence (P43220 24-463 G168S limits assumed) above, with S145G, L237F counted along it

| SMILES | EC50 (human GLP-1R [1]) | Emax (human GLP-1R [1]) | EC50 (human GLP-1R [2]; Assay 1 EC50 (nM)) | Emax (human GLP-1R [2]) | Assay 1 Emax (%) (human GLP-1R [2]) | EC50 (human GLP-1R [2]; read-out: Assay 1 EC50) | Assay 2 Emax (%) (human GLP-1R [1]) |
| --- | --- | --- | --- | --- | --- | --- | --- |
| COCCn1c(CN2CC[C@@H](c3cccc(OCc4ccc(Cl)cc4F)n3)[C@H](O)C2)nc2ccc(C(=O)O)cc21 (racemic) [Example 1A-23, rac-2-{[(3S,4S)-4-{6-[(4-chloro-2-fluorobenzyl)oxy]pyridin-2-yl}-3-hydroxypiperidin-1-yl]methyl}-1-(2-methoxyethyl)-1H-benzimidazole-6-carboxylic acid] | 1000 nM | 98% | 50 nM | 83% |  |  |  |
| COCCn1c(CN2CC[C@@H](c3cccc(OCc4ccc(Cl)cc4F)n3)[C@@H](C)C2)nc2ccc(C(=O)O)cc21 (racemic) [Example 1A-25, rac-2-{[(3R,4R)-4-{6-[(4-chloro-2-fluorobenzyl)oxy]pyridin-2-yl}-3-methylpiperidin-1-yl]methyl}-1-(2-methoxyethyl)-1H-benzimidazole-6-carboxylic acid] | 1000 nM | 84% | 45 nM | 65% |  |  |  |
| COCCn1c(CN2CC[C@@H](c3cccc(OCc4ccc(Cl)cc4F)n3)[C@H](C)C2)nc2ccc(C(=O)O)cc21 (racemic) [Example 1A-26, rac-2-{[(3S,4R)-4-{6-[(4-chloro-2-fluorobenzyl)oxy]pyridin-2-yl}-3-methylpiperidin-1-yl]methyl}-1-(2-methoxyethyl)-1H-benzimidazole-6-carboxylic acid] | 1800 nM | 85% | 70 nM | 80% |  |  |  |
| CO[C@H]1CCC[C@H]1Cn1c(CN2CCC(c3cccc(OCc4ccc(Cl)cc4F)n3)CC2)nc2ccc(C(=O)O)cc21 (racemic) [Example 1A-29, rac-2-[(4-{6-[(4-chloro-2-fluorobenzyl)oxy]pyridin-2-yl}piperidin-1-yl)methyl]-1-{[(1S,2S)-2-methoxycyclopentyl]methyl}-1H-benzimidazole-6-carboxylic acid] | 5600 nM | 86% | 260 nM | 88% |  |  |  |
| COCCn1c(CN2CCC(c3cccc(OCc4ccc(Cl)cc4F)n3)CC2C)nc2ccc(C(=O)O)cc21 (single isomer, unassigned) [Example 13A-03, cis 2-{[4-{6-[(4-Chloro-2-fluorobenzyl)oxy]pyridin-2-yl}-2-methylpiperidin-1-yl]methyl}-1-(2-methoxyethyl)-1H-benzimidazole-6-carboxylic acid] | 120 nM | 80% |  |  | 66% | 5.2 nM |  |
| COCCn1c(CN2CCC(c3cccc(OCc4ccc(Cl)cc4F)n3)CC2C)nc2ccc(C(=O)O)cc21 (single isomer, unassigned) [Example 13A-04, cis 2-{[4-{6-[(4-Chloro-2-fluorobenzyl)oxy]pyridin-2-yl}-2-methylpiperidin-1-yl]methyl}-1-(2-methoxyethyl)-1H-benzimidazole-6-carboxylic acid] | 1400 nM |  | 46 nM |  | 66% |  | 83% |
| C[C@H]1CN(c2cccc(OCc3ccc(C#N)cc3)n2)CCN1Cc1nc2ccc(C(=O)O)cc2n1CC1CCCO1 (single isomer, unassigned; diastereomer 1) [Example 14A-07] | 55 nM |  |  |  | 63% | 1.9 nM |  |
| C[C@H]1CN(c2cccc(OCc3ccc(C#N)cc3F)n2)CCN1Cc1nc2ccc(C(=O)O)cc2n1CC1CCCO1 (single isomer, unassigned; diastereomer 1) [Example 14A-11] | 140 nM |  |  |  | 65% | 7 nM | 71% |
| C[C@H]1CN(c2cccc(OCc3ccc(C#N)cc3)n2)CCN1Cc1nc2ccc(C(=O)O)cc2n1CC1CCCO1 (single isomer, unassigned; diastereomer 2) [Example 14A-08] | 380 nM |  |  |  |  | 19 nM |  |
| C[C@H]1CN(c2cccc(OCc3ccc(C#N)cc3F)n2)CCN1Cc1nc2ccc(C(=O)O)cc2n1CC1CCCO1 (single isomer, unassigned; diastereomer 2) [Example 14A-12] | 20 nM |  |  |  |  | 1.4 nM |  |
| N#Cc1ccc(COc2cccc(C3CCN(Cc4nc5ccc(C(=O)O)cc5n4CC4CCCO4)CC3)n2)cc1 (single isomer, unassigned; enantiomer 1) [Example 14A-01, 2-[(4-{6-[(4-cyanobenzyl)oxy]pyridin-2-yl}piperidin-1-yl)methyl]-1-(tetrahydrofuran-2-ylmethyl)-1H-benzimidazole-6-carboxylic acid,enantiomer 1] | 200 nM |  |  |  |  | 5.6 nM | 89% |
| COCCn1c(CN2CCN(c3cccc(OCc4ccc(Cl)cc4F)n3)CC2C(F)(F)F)nc2ccc(C(=O)O)cc21 (single isomer, unassigned; enantiomer 2) [Example 12A-02, 2-((4-(6-((4-Chloro-2-fluorobenzyl)oxy)pyridin-2-yl)-2-(trifluoromethyl)piperazin-1-yl)methyl)-1-(2-methoxyethyl)-1H-benzo[d]imidazole-6-carboxylic acid, enantiomer 2] | 1600 nM | 82% | 36 nM | 71% |  |  |  |
| N#Cc1ccc(COc2cccc(C3CCN(Cc4nc5ccc(C(=O)O)cc5n4CC4CCCO4)CC3)n2)cc1 (single isomer, unassigned; enantiomer 2) [Example 14A-02, 2-[(4-{6-[(4-cyanobenzyl)oxyhoyridin-2-yl}piperidin-1-yl)methyl]-1-(tetrahydrofuran-2-ylmethyl)-1H-benzimidazole-6-carboxylic acid,enantiomer 2] | 1500 nM |  |  |  |  | 94 nM | 69% |
| Cn1c(CN2CCC(c3cccc(OCc4ccc(Cl)cc4F)n3)CC2)nc2ccc(C(=O)O)cc21 [Example 1A-01, 2-((4-(6-((4-Chloro-2-fluorobenzyl)oxy)pyridin-2-yl)piperidin-1-yl)methyl)-1-methyl-1H-benzo[d]imidazole-6-carboxylic acid hydrochloride] | 910 nM | 94% |  | 77% |  | 81 nM |  |
| COCCn1c(CN2CCC(c3ccc(F)c(OCc4ccc(Cl)cc4F)n3)CC2)nc2ccc(C(=O)O)cc21 [Example 1A-04, 2-[(4-{6-[(4-chloro-2-fluorobenzyl)oxy]-5-fluoropyridin-2-yl}piperidin-1-yl)methyl]-1-(2-methoxyethyl)-1H-benzimidazole-6-carboxylic acid] | 350 nM | 82% |  | 79% |  | 21 nM |  |
| COCCn1c(CN2CCN(c3nc(OCc4ccc(Cl)cc4F)ccc3F)CC2)nc2ccc(C(=O)O)cc21 [Example 1A-05, 2-[(4-{6-[(4-chloro-2-fluorobenzyl)oxy]-3-fluoropyridin-2-yl}piperazin-1-yl)methyl]-1-(2-methoxyethyl)-1H-benzimidazole-6-carboxylic acid] |  | 67% |  | 75% |  |  |  |
| COCCn1c(CN2CCN(c3nc(OCc4ccc(Cl)cc4F)ccc3F)C[C@@H]2C)nc2ccc(C(=O)O)cc21 [Example 1A-06, 2-{[(2S)-4-{6-[(4-chloro-2-fluorobenzyl)oxy]-3-fluoropyridin-2-yl}-2-methylpiperazin-1-yl]methyl}-1-(2-methoxyethyl)-1H-benzimidazole-6-carboxylic acid] | 350 nM | 70% |  | 84% |  | 29 nM |  |
| COCCn1c(CN2CCN(c3ccc(F)c(OCc4ccc(Cl)cc4F)n3)C[C@@H]2C)nc2ccc(C(=O)O)cc21 [Example 1A-07, 2-{[(2S)-4-{6-[(4-chloro-2-fluorobenzyl)oxy]-5-fluoropyridin-2-yl}-2-methylpiperazin-1-yl]methyl}-1-(2-methoxyethyl)-1H-benzimidazole-6-carboxylic acid] | 45 nM | 82% |  | 82% |  | 3.9 nM |  |
| COCCn1c(CN2CCN(c3ccc(F)c(OCc4ccc(C#N)cc4)n3)C[C@@H]2C)nc2ccc(C(=O)O)cc21 [Example 1A-08, 2-{[(2S)-4-{6-[(4-cyanobenzyl)oxy]-5-fluoropyridin-2-yl}-2-methylpiperazin-1-yl]methyl}-1-(2-methoxyethyl)-1H-benzimidazole-6-carboxylic acid] | 120 nM | 85% |  | 81% |  | 7.1 nM |  |
| [2H]C([2H])(Oc1cccc(C2CCN(Cc3nc4ccc(C(=O)O)cc4n3C[C@@H]3CCO3)CC2)n1)c1ccc(C#N)cc1F [Example 1A-09, 2-{[4-(6-{[(4-cyano-2-fluorophenyl)(methyl-d2)]oxy}pyridin-2-yl)piperidin-1-yl]methyl}-1-[(2S)-oxetan-2-ylmethyl]-1H-benzimidazole-6-carboxylic acid] |  | 120% |  | 92% |  |  |  |
| COCCn1c(CN2CCC(c3cccc(OCc4ccccc4)n3)CC2)nc2ccc(C(=O)O)cc21 [Example 1A-10, 2-({4-[6-(benzyloxy)pyridin-2-yl]piperidin-1-yl}methyl)-1-(2-methoxyethyl)-1H-benzimidazole-6-carboxylic acid] | 9000 nM | 100% |  | 86% |  | 930 nM |  |
| COCCn1c(CN2CCN(c3cccc(OCc4ccc(C#N)cc4)n3)CC2)nc2ccc(C(=O)O)cc21 [Example 1A-11, 2-[(4-{6-[(4-cyanobenzyl)oxy]pyridin-2-yl}piperazin-1-yl)methyl]-1-(2-methoxyethyl)-1H-benzimidazole-6-carboxylic acid] | 530 nM | 97% |  | 76% |  | 19 nM |  |
